For assay [1], the target named is T1, Glucocorticoid receptor (Homo sapiens, UniProt P04150).
T1 sequence (P04150 whole entry): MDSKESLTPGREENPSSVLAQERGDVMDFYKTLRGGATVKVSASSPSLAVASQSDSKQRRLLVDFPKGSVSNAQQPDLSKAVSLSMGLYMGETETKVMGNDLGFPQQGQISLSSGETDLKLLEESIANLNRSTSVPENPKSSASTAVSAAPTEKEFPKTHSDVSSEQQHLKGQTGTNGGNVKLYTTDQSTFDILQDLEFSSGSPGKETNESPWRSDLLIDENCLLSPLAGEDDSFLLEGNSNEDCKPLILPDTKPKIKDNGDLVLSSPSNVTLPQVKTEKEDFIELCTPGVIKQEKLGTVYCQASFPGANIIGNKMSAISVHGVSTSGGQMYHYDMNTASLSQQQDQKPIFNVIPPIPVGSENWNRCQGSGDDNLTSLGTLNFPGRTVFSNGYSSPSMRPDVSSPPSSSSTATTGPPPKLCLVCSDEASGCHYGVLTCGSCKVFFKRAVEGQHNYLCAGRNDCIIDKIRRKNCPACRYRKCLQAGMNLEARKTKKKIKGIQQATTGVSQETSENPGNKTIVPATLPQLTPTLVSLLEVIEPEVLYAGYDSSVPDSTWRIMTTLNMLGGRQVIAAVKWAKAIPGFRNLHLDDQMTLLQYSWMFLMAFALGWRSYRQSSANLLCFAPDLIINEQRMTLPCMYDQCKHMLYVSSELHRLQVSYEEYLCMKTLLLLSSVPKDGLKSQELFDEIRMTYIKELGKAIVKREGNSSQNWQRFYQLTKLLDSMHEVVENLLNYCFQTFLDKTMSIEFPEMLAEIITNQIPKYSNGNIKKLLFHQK

Assay [2] deals with T2, Thromboxane A2 receptor (Homo sapiens, UniProt P21731).
T2 sequence (P21731 whole entry): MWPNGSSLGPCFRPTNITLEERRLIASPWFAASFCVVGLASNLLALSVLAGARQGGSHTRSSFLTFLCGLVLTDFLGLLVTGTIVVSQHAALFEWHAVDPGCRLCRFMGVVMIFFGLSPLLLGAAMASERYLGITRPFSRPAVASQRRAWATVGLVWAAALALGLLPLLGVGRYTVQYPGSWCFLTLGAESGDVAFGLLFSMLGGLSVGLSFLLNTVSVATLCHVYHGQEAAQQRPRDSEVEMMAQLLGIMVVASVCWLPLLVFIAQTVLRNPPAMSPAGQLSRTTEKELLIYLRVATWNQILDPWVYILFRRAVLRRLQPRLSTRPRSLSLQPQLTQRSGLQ

The target in assay [3] is Cannabinoid receptor 1 (Homo sapiens, UniProt P21554).
Assay [4] concerns the target T3, Estrogen receptor (Homo sapiens, UniProt P03372).
T3 sequence (P03372 whole entry): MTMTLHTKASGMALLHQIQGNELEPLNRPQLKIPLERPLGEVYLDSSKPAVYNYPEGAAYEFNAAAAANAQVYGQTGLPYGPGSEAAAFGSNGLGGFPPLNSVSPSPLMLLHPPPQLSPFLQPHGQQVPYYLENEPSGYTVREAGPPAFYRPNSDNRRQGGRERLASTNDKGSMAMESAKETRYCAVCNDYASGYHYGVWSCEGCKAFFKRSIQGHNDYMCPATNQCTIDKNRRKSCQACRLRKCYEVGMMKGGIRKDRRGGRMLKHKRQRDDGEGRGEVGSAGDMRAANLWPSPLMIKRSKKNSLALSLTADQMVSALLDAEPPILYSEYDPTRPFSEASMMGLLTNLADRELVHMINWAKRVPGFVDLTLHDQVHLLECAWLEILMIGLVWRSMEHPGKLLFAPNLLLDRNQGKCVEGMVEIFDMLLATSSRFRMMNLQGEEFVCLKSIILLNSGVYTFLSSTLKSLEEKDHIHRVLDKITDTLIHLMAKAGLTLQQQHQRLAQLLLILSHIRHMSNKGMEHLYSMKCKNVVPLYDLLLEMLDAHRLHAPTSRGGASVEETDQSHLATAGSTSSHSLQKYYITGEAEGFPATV

For assay [5], the target named is T4, Alpha-1A adrenergic receptor (Homo sapiens, UniProt P35348).
T4 sequence (P35348 whole entry): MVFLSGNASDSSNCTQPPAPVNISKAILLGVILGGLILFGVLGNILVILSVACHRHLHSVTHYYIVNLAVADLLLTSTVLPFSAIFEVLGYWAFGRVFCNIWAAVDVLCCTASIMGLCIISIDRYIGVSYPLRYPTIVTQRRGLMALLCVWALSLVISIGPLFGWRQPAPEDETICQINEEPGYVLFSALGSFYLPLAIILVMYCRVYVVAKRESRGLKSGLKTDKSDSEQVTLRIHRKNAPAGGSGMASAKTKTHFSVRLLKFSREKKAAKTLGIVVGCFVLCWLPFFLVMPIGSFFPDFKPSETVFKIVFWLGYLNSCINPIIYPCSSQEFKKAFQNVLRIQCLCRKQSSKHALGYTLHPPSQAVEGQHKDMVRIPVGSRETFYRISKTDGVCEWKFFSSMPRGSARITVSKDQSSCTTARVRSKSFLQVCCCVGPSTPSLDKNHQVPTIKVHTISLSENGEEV

For assay [6], the target named is T5, Gastrin/cholecystokinin type B receptor (Homo sapiens, UniProt P32239).
T5 sequence (P32239 whole entry): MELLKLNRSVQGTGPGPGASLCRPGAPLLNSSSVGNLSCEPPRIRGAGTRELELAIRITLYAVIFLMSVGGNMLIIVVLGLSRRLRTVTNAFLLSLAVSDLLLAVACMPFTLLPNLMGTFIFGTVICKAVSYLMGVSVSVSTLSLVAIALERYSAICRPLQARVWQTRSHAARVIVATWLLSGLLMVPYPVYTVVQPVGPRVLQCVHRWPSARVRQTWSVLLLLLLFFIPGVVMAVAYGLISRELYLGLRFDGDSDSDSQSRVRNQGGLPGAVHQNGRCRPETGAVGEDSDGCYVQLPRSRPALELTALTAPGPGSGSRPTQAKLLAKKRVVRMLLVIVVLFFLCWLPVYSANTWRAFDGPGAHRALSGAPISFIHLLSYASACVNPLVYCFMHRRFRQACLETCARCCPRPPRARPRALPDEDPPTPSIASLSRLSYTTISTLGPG
Note: assay procedure not described here.

Chain of Cannabinoid receptor 1 (P21554 whole entry): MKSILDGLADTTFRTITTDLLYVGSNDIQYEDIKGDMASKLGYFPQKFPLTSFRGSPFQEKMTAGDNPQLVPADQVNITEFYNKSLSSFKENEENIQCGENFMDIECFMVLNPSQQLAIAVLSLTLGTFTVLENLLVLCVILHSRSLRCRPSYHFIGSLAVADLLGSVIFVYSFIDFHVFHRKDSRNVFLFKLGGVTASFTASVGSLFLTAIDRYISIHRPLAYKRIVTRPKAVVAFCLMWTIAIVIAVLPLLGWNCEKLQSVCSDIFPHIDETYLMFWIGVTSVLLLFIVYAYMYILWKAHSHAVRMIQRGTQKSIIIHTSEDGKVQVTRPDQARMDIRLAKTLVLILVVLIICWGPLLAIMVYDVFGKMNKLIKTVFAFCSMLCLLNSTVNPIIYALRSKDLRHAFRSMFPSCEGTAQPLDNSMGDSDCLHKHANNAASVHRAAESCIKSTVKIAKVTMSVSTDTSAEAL

For `N=C(N)NC(=O)c1nc(Cl)c(N)nc1N` [AMILORIDE], the AC50 (in general, the midpoint of the concentration-response curve, whichever way the signal moves) in assay [1] is > 30 µM; in assay [2], > 30 µM; in assay [3], > 30 µM; in assay [4], > 30 µM; in assay [5], 2.69 µM; in assay [6], > 30 µM.

Consider `COc1ccc(-c2cc(=S)ss2)cc1` [ANETHOLTRITHION], for which the AC50 in assay [1] was > 30 µM; in assay [2], 16 µM; in assay [4], > 30 µM; in assay [6] it was 5.3 µM.

In the case of `C[C@]12CCC(=O)C=C1C=C[C@@H]1[C@@H]2CC[C@@]2(C)[C@H]1CC[C@@]21CCC(=O)O1` [CANRENONE], the AC50 in assay [1] is 1.3 µM; in assay [2] it was > 30 µM; in assay [4], > 30 µM; in assay [6], > 30 µM.

Consider `CN(C)CCC(O)(c1ccccc1)c1ccccc1Cl` (stereo unspecified) [CHLOPHEDIANOL], for which the AC50 was > 10 µM in assay [1]; > 10 µM in assay [2]; > 10 µM in assay [3]; > 10 µM in assay [4]; 11.8 µM in assay [5].

Regarding `C[C@]12C=CC(=O)C=C1C(Cl)=C[C@@H]1[C@@H]2[C@@H](O)C[C@@]2(C)[C@H]1CC[C@]2(O)C(=O)CO` [CLOPREDNOL], the AC50 was 0.032 µM in assay [1], > 30 µM in assay [4] and > 30 µM in assay [6].

As for `COc1cccc2c1C(=O)c1c(O)c3c(c(O)c1C2=O)C[C@@](O)(C(=O)CO)C[C@@H]3O[C@H]1C[C@H](N)[C@H](O)[C@H](C)O1` [DOXORUBICIN], the AC50 in assay [1] is 2.59 µM; in assay [3], > 10 µM; in assay [4], 0.53 µM; in assay [5], > 10 µM; in assay [6], > 30 µM.

For the compound `C[C@]12CCC(=O)C=C1[C@@H]1C[C@@H]1[C@H]1[C@@H]3[C@@H]4C[C@@H]4[C@@]4(CCC(=O)O4)[C@@]3(C)CC[C@@H]12` [DROSPIRENONE], the AC50 in assay [2], in assay [3] and in assay [6] was > 30 µM throughout.

As for `CC(C)(Oc1ccc(Cl)cc1)C(=O)OCCOC(=O)c1cccnc1` [ETOFIBRATE], the AC50 in assay [1], in assay [2], in assay [4] and in assay [6] was > 30 µM each time.

For `C[C@]12C=CC(=O)C=C1CC[C@@H]1[C@@H]2[C@@H](O)C[C@@]2(C)[C@H]1CC[C@]2(O)C(=O)CO` [PREDNISOLONE], the AC50 is > 30 µM in assay [2]; > 10 µM in assay [3]; > 30 µM in assay [4]; > 10 µM in assay [5]; > 30 µM in assay [6].

Take `CCC(=O)c1ccc2c(c1)N(CC(C)N(C)C)c1ccccc1S2` (stereo unspecified) [PROPIOMAZINE]: the AC50 in assay [1] was > 30 µM; in assay [2], > 10 µM; in assay [3], > 10 µM; in assay [4], > 30 µM; in assay [5] it was 0.0294 µM.

For `CN(C)[C@@H]1C(O)=C(C(=O)NCN2CCCC2)C(=O)[C@@]2(O)C(O)=C3C(=O)c4c(O)cccc4[C@@](C)(O)[C@H]3C[C@@H]12` [ROLITETRACYCLINE], the AC50 was 25.8 µM in assay [1], > 10 µM in assay [2], > 10 µM in assay [3] and > 10 µM in assay [5].

For the compound `Cc1ccc(O)c([C@H](CCN(C(C)C)C(C)C)c2ccccc2)c1` [TOLTERODINE], the AC50 is > 10 µM in assay [3] and 2.74 µM in assay [5].

With `CC1(C)O[C@@H]2C[C@H]3[C@@H]4CCC5=CC(=O)C=C[C@]5(C)[C@@]4(F)[C@@H](O)C[C@]3(C)[C@]2(C(=O)CO)O1` [TRIAMCINOLONE ACETONIDE], the AC50 in assay [1] was 0.0031 µM; in assay [2] it was > 30 µM; in assay [6], > 30 µM.

`Oc1cc(Cl)ccc1Oc1ccc(Cl)cc1Cl` [TRICLOSAN]: the AC50 in assay [1] is > 30 µM; in assay [2], 21 µM; in assay [6], > 30 µM.

Source of the values: ChEMBL document CHEMBL5291721, “A preclinical secondary pharmacology resource illuminates target-adverse drug reaction associations of marketed drugs” (Nat Commun, 2023).
